According to patent US20030220307A1, “Remedial agent for osteoporosis” (priority 2000, published 2003):

Key:
[1] = test system: ovariectomized (OVX) rats; assay: Test in osteoporosis rat model (femur bone mineral density and blood Ca level); assay type: in vivo; conditions: oral; for OVX-induced decrease in femur bone mineral density: every day for 8 weeks, vs OVX group, p<0.05, level remained as high as in the sham group; for blood calcium-increasing effect: in amounts where they suppressed the decrease in bone mineral density, 8 weeks, blood drawn 24 hours after last administration
Method: The compounds of the present invention were evaluated for their effects on bone mineral density and blood calcium (Ca) level in osteoporosis rat model. The following compounds were tested: 1α,3β-dihydroxy-20(S)-(3-ethyl-3-hydroxypentyl)-9,10-secopregna-5,7,10(19),16-tetraene from Example 11 (hereinafter referred to as “Compound l”) and 1α,3β-dihydroxy-20(S)-(5-ethyl-5-hydroxy-3-heptynyl)-9,10-secopregna-5,7,10(19),16-tetraene from Example 6 (hereinafter referred to as “Compound 2”).
Nine-month-old W-I female rats (Imamichi Institute for Animal Reproduction) were ovariectomized to remove both ovaries. From the following day, Compound 1 or Compound 2 was orally administered every day for 8 weeks. Compound 1 was given in an amount of 0.5 μg/kg, 1 μg/kg or 2 μg/kg per day in two divided doses, while Compound 2 was given in an amount of 0.125 μg/kg, 0.25 μg/kg or 0.5 μg/kg per day in two divided doses. Twenty-four hours after the last administration, blood was drawn from each rat under ether anesthesia. The rats were then euthanized and their femurs were isolated.
The femur bone mineral density was measured using a dual X-ray bone mineral densitometer (DCS-600EX, ALOKA). The blood calcium (Ca) level was measured with a HITACHI automatic analyzer (Model 7170, Hitachi). For comparison purposes, both groups of sham operation (sham) and ovariectomy (OVX; in which rats were ovariectomized only, not followed by administration of test compounds) were similarly assayed for their blood calcium (Ca) level and bone mineral density by isolating their femurs.
Statistical processing was carried out using a software package of Statistic Analysis System (SAS). A comparison between sham operation (sham) and ovariectomy (OVX) groups was made by an unpaired t-test, while a comparison between OVX and drug treatment groups was made by Dunnett's multiple test. A P-value less than 5% was defined as a significant difference.

[2] = test system: ovariectomized (OVX) rats; assay type: in vivo, rat; conditions: 0.04 μg/kg per dose, subcutaneous, 5 times a week for 6 weeks; third lumbar vertebra
Method: Seven- to nine-week-old W-I female rats (Imamichi Institute for Animal Reproduction) were ovariectomized to remove both ovaries. From the following day, 1α,25-dihydroxyvitamin D3 was subcutaneously administered 5 times a week for 6 weeks in an amount of 0.01 to 0.04 μg/kg per dose. After the last administration, 24-hour urine was sampled from each rat and blood was drawn under ether anesthesia. The rats were then euthanized and their lumbar vertebrae were isolated. The lumbar bone mineral density was measured at the third lumbar vertebra site using a dual X-ray bone mineral densitometer (DCS-600, ALOKA). The blood and urinary calcium levels and the urinary creatinine level were measured with a HITACHI automatic analyzer (Model 7170, Hitachi). Statistical processing was carried out using a software package of Statistic Analysis System (SAS). A comparison between sham operation (sham) and ovariectomy (OVX) groups was made by an unpaired t-test, while a comparison between OVX and drug treatment groups or between sham and drug treatment groups was made by Dunnett's multiple test. A P-value less than 5% was defined as a significant difference.

SMILES	OVX-induced decrease in femur bone mineral density ([1]; 0.125 μg/kg per day in two divided doses)	OVX-induced decrease in femur bone mineral density ([1]; 0.5 μg/kg per day in two divided doses)	blood calcium-increasing effect [1]	OVX-induced decrease in femur bone mineral density ([1]; 1 μg/kg per day in two divided doses)	OVX-induced decrease in femur bone mineral density ([1]; 2 μg/kg per day in two divided doses)	OVX-induced decrease in lumbar bone mineral density [2]
C=C1/C(=C\C=C2/CCC[C@]3(C)C([C@@H](C)CCC#CC(O)(CC)CC)=CCC23)C[C@@H](O)C[C@@H]1O (stereo partly drawn) [Compound 2, 1α,3β-dihydroxy-20(S)-(5-ethyl-5-hydroxy-3-heptynyl)-9,10-secopregna-5,7,10(19),16-tetraene]	significantly suppressed	significantly suppressed	not observed	–	–	–
C=C1/C(=C\C=C2/CCC[C@]3(C)C([C@@H](C)CCC(O)(CC)CC)=CCC23)C[C@@H](O)C[C@@H]1O (stereo partly drawn) [Compound 1, 1α,3β-dihydroxy-20(S)-(3-ethyl-3-hydroxypentyl)-9,10-secopregna-5,7,10(19),16-tetraene]	–	–	not observed	significantly suppressed	significantly suppressed	–
C=C1/C(=C\C=C2/CCC[C@]3(C)[C@@H]([C@H](C)CCCC(C)(C)O)CC[C@@H]23)C[C@@H](O)C[C@@H]1O [1α,25-dihydroxyvitamin D3]	–	–	–	–	–	significantly suppressed
